Experimental data reported in patent US20250186319A1, “ANAPLEROTIC COMPOSITIONS AND USES THEREOF” (EXCELLA BIOSCIENTIFIC LTD, priority 2021, published 2025).
In brackets after ≈: the same amount, converted by molar mass. Read-outs that look alike come from different tables or passages of the source.

What was measured:
P. acnes = assay: MIC/MBC against P. acnes by microdilution method; format: cell-based; details: for MIC: Cutibacterium acnes; for MBC: TriAza batches and their soaps
From the text: TriAza was designed as a pro-drug of azelaic acid, a known antibacterial agent, for the treatment of skin disorders associated with pathogenic propagation of bacteria. For example, the development of Acne vulgaris is tightly associated with extensive accumulation of P. acnes in the sebaceous gland, a milieu of the disease. To determine the antibacterial activity of TriAza against P. acnes, we tested the minimal bactericidal concentration (MBC) of TriAza. The effect of TriAza was compared to the MBC of azelaic acid and benzoyl peroxide (BPO), two main competitors used in the treatment of acne.
To compare the antimicrobial activities of various batches of TriAza we determined MIC of number of batches that were prepared with non-principal modifications. Selected batches were labeled as TriAza −3, TriAza −6, TriAza −7 and TriAza −19 and supplied to the growth medium of P. acnes. A, minimal inhibitory concentration of the batches was monitored and compared to each other. […] For further analysis, batch TriAza −19 was chosen as a batch containing the minimal amount of pelargonic acid.
Since TriAza is designed for marketing as a soap, we decided to define an antibacterial activity of its soap. […] It should be stressed that despite the decreased activity of TriAza soap it is still higher than that of azelaic acid (Table 1 and 2).
Example 12: Microbiome balance effect: Selection of methods for QC-quality control-Functional Potency. Testing minimal inhibitory concentration (MIC) to P. acnes was executed by microdilution method. TriAza based biocontrol, microbial preservation. P. acnes after double passage on Chocolate plates (Novamed) were grown bacteria in anaerobic conditions at 37° C. for 1-2 days. The bacteria were Gram stained and the proper morphology of the bacteria was assured. Then, bacteria were resuspended in Thioglycolate medium (HyLabs) at concentration of 0.02 O.D.600. Meanwhile, ELISA plates containing at the first raw 200 μl of undiluted tested material were prepared. The rest wells were filled with 100 μl of Thioglycolate medium and 11 serial […] by transferring 100 μl of undiluted material was performed. Once the ELISA plate was ready, 100 μl of prepared bacterial culture was added. Bacteria alone and medium w/o bacteria were used as standard controls. The plates were incubated in anaerobic conditions at 37° C. for 2 days. Minimal inhibitory concentration was determined visually and spectrophotometrically, while minimal bactericidal concentration was determined after plating of the bacteria on solid medium (Chocolate plates). On the plates bacteria were incubated in anaerobic conditions at 37° C. for 2 days and the number of appearing colonies were counted manually. Specification for positive functional potency for batch acceptance for the TriAza batches tested are selected in range of antimicrobial activity-MIC between 0,25-1 mM.
P. acnes after double passage on Chocolate plates (Novamed) were grown in anaerobic conditions at 37° C. for 1-2 days. The bacteria were Gram stained and the proper morphology of the bacteria was assured. Then, bacteria were resuspend in Thioglycolate medium
(HyLabs) at concentration of 0.02 O.D.600. Meanwhile, ELISA plates containing at the first raw undiluted tested material were prepared. The rest wells were filled with 100 μl of Thioglycolate medium and 11 serial ½ dilutions by transferring 100 ul of undiluted material was performed. Once the ELISA plate was ready, 100 ul of prepared bacterial culture was added. Bacteria alone and medium w/o bacteria were used as standard controls. The plates were incubated in anaerobic conditions at 37° C. for 2 days. Minimal inhibitory concentration was determined visually and spectrophotometrically, while minimal bactericidal concentration was determined after plating of the bacteria on solid medium (Chocolate plates). […]

lipase from P. cepacia = target: T1, lipase from P. cepacia (Burkholderia cepacia, UniProt P22088); assay: Bacterial lipase hydrolysis of TriAza, azelaic acid production by TLC; format: biochemical; details: increasing enzyme amounts, 37° C.
T1 construct: purchased
T1 sequence (P22088 45-364): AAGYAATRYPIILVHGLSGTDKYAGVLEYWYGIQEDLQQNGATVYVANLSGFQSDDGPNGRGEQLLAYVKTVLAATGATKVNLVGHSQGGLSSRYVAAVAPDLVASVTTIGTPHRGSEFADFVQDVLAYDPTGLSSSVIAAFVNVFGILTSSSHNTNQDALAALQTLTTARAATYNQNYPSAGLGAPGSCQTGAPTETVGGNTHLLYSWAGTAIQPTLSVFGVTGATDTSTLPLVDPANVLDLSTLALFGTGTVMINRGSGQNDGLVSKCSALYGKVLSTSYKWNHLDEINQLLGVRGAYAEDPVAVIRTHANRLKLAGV
Procedure: To determine the affinity of a bacterial lipase to the active ingredient according to the embodiments of the invention, the ability of the lipase to utilize TriAza as a substrate was tested. For this purpose, the commercially available lipase from P. cepacian was used. Increasing amounts of the enzyme were mixed with a fixed concentration of the substrate, and incubated for a few hours at 37° C. The enzymatic activity was monitored by TLC, by registering the production of azelaic acid.
(§1) Pure pro-drug activity of designed molecules implies their high specificity towards the target enzyme. TriAza represents the glycerol ester of a specific fatty acid that might be recognized by a mammalian esterase or other triglyceride-utilizing lipase. To establish specificity of bacterial lipase to TriAza, the lipase activity from P. cepacia to that of mammalian esterase and phospholipase A2 were compared. […] The extents of enzyme activities were registered according to the level of generation of azelaic acid.

mammalian esterase = assay: Specificity: hydrolysis of TriAza by esterase; format: biochemical; details: equally active enzyme amounts, fixed TriAza concentration
From the text: as §1

phospholipase A2 = assay: Specificity: hydrolysis of TriAza by phospholipase A2; format: biochemical; details: equally active enzyme amounts, fixed TriAza concentration
From the text: as §1

[1] = system: P. acnes-associated lipase; assay: P. acnes-associated lipase activity in live culture, release of azelaic acid (TLC); format: cell-based; details: day 1 and day 5
Procedure: The activity of C. acnes-associated and P. acnes-associated lipase was tested in the presence of triolein (a trigger of lipase activity). Bacteria was grown for 4 days in liquid medium. P. acnes after double passage on Chocolate plates (Novamed) were grown bacteria in anaerobic conditions at 37° C. for 1-2 days. The bacteria were Gram stained, and the proper morphology of the bacteria was assured. Then, 1 O.D. 600 bacteria were resuspended in 1 ml of Thioglycolate medium (HyLabs) containing 50 μl triolein and grown in anaerobic conditions at 37° C. for 4 days. Following this incubation, 100 μl of emulsified substrate was added to the culture that was further maintained at 37° C. for overnight. Afterwards, the supernatant was separated from the bacteria by 1 min centrifugation at 10000 rpm and subjected to lipid extraction using clorophorm: methanol (2:1). The lipids after nitrogen evaporation and resuspension in clorophorm: methanol (2:1) were separated on silica TLC plates in a development solution of clorophorm: methanol: water (65:25:4), and visualized with BromCresol Green (Sigma).

[2] = Subjective evaluation of skin aged appearance in volunteers; format: in vivo, human; details: scale −3 to 3; three volunteers; after month of use
Procedure: Method of subjective qualitative evaluation of skin whitening and smoothening at the test site and improvement in fine lines is evaluated subjectively by the investigator and/or by the subjects in accordance with the following scoring pattern:−3=marked deterioration;−2=moderate, visibly uneven deterioration;−1=slight deterioration; 0=no perceptible change or improvement; 1=slight change or improvement; 2=moderate change or improvement (whitening; perceptible and visible change, with less than 50% lightening of skin color); 3=marked or improvement remarkable change or improvement (whitening; very visible change with even and uniform skin whitening covering more than 80% of the contact area). Three study volunteers used TriAza for reduction of skin “aged appearance”-all three after month of use reported 2-3 scale of appearance improvement.

[3] = system: Staphylococcus aureus (S. aureus); assay: MIC/MBC against S. aureus; format: cell-based
From the text: (§2) For this purpose, we selected a few major skin pathogens and tested their sensitivity to TriAza. We chose Staphylococcus aureus (S. aureus) and Candida albicans (C. albicans), representing bacterial and fungal genera, respectively. Both organisms' express lipase. The bacteria and fungi were exposed to various concentrations of TriAza −19 and its sodium salt, and both the MICs and MBCs of the agents were statistically determined. […] The slight difference in MICs of TriAza against the tested organisms can stem from the difference in their lipase activity.

[4] = system: Candida albicans (C. albicans); assay: MIC/MBC against C. albicans; format: cell-based
From the text: as §2

S. aureus = S. aureus spiked contamination screen of natural preservatives in chocolate spread; format: cell-based; design: unit not given here
From the text: In addition, even MCT, and derivatives are screened as useful natural preservatives of the composition, GML-glycerol monolaurate is selected as an adjunctive multifunctional natural preservative to MOCL based composition.

[5] = TriAza value is batch #5, MIC of L-PABS equals its MBC, read-out: MIC

O=C(O)CCCCCCCC(=O)O [Azelaic acid, reference compound]
MIC (P. acnes; [5]): 3750 µg/mL

O=C(OOC(=O)c1ccccc1)c1ccccc1 [BPO, benzoyl peroxide, reference compound]
MIC (P. acnes; [5]): 500 µg/mL

O=C(O)CCCCCCCC(=O)OCC(COC(=O)CCCCCCCC(=O)O)OC(=O)CCCCCCCC(=O)O [TriAza, Glycerol triazelate]
MIC (P. acnes; [5]): 1950 µg/mL | MIC (P. acnes; batch VA4-1, with surfactant or emulsifier, read-out: MIC bacteriostatic activity, concentration sufficient to stop growth): 1000 µM | activity of TriAza relative to Azelaic acid (P. acnes; stronger than Azelaic acid): 2 fold | utilization as substrate, accumulation of azelaic acid (lipase from P. cepacia): could be utilized as a substrate for bacterial lipase activity | generation of azelaic acid by esterase (mammalian esterase): neither esterase nor phospholipase A2 could produce azelaic acid | generation of azelaic acid by phospholipase A2 (phospholipase A2): neither esterase nor phospholipase A2 could produce azelaic acid | time-dependent release of azelaic acid [1]: maximum lipase hydrolysis on day 5 | appearance improvement score [2]: 2-3

O=C(O)CCCCCCCC(=O)OCC(COC(=O)CCCCCCCC(=O)O)OC(=O)CCCCCCCC(=O)O [TriAza-3]
MBC (P. acnes): 1000 µg/mL (≈ 1.66 mM)

O=C(O)CCCCCCCC(=O)OCC(COC(=O)CCCCCCCC(=O)O)OC(=O)CCCCCCCC(=O)O [TriAza-6]
MBC (P. acnes): 2800 µg/mL (≈ 4.65 mM)

O=C(O)CCCCCCCC(=O)OCC(COC(=O)CCCCCCCC(=O)O)OC(=O)CCCCCCCC(=O)O [TriAza-7]
MBC (P. acnes): 2000 µg/mL (≈ 3.32 mM)

O=C(O)CCCCCCCC(=O)OCC(COC(=O)CCCCCCCC(=O)O)OC(=O)CCCCCCCC(=O)O [TriAza-19]
MBC (P. acnes): 1000 µg/mL (≈ 1.66 mM) | MBC [3]: 10000 µg/mL (≈ 16.6 mM) | MIC [3]: 5000 µg/mL (≈ 8.3 mM) | MBC [4]: 24000 µg/mL (≈ 39.8 mM) | MIC [4]: 20000 µg/mL (≈ 33.2 mM)

CCCCCCCCC(=O)OCC(COC(=O)CCCCCCCC)OC(=O)CCCCCCCC [tripelargonin]
MIC (S. aureus): 23
